PubChem BioAssay AID1963446 (Molecular Pharmacology Branch, DTP, NCI, 2024)

Test system: 993429-296-R-J1-PDC complex spheroid growth, percent test/control
Test: Anticancer human tumor 993429-296-R-J1-PDC patient-derived uterine sarcoma cell line growth inhibition [Asc]
Details: for IC50: curve of first compound; for viability, T/C: stronger effect = lower value
Procedure: Multicellular complex tumor spheroid response to apoptosis pathway targeting inhibitors Alrizomadlin, Pelcitoclax, and Dasminapant in combination with a variety of drugs and investigational agents in selected tumor cell lines
The MDM2 inhibitor alrizomadlin, the Bcl-2/Bcl-xL inhibitor pelcitoclax, and the IAPs inhibitor dasminapant were evaluated both individually and in combination with standard of care and investigational anticancer small molecules within a complex spheroid model of solid tumors. . Complex spheroids include a stromal component modeled by human endothelial cells (HUVEC) and fibroblasts modeled by human mesenchymal stem cells (MSCs). The concentration ranges selected for each drug and investigational agent were based upon clinically achievable concentrations if the clinical Cmax of the agent was known.
Compounds. The drugs and investigational agents: alrizomadlin (APG-115; NSC831270), pelcitoclax (APG-1252; NSC835773), dasminapant (APG-1387;NSC834197), TAK-243 (NSC785004), copanlisib (NSC809693), olaparib (NSC753686), talazoparib (NSC767125), cobimetinib (NSC 768068), eltanexor (KPT-8602, NSC 794443), abemaciclib (NSC 768073), sotorasib (NSC818433), adagrasib (NSC 831453), MRTX-1133 (NSC 836407), Iadademestat (ORY1001, NSC 806812), and RMC-4630 (NSC839698), were obtained from the NCI Developmental Therapeutics Program Chemical Repository. The FDA-approved anticancer drug set is available from the Developmental Therapeutics Program at https://dtp.cancer.gov/organization/dscb/obtaining/available plates.htm. […] The stock solutions were prepared in dimethyl sulfoxide (DMSO, Sigma-Aldrich, St. Louis, MO, cat. D2650) at 800-fold the tested concentration and stored at -70 degrees C prior to their use. All drugs and investigational agents were tested over a range starting from a high concentration at or near the clinical Cmax and decreasing in half-log increments. If the clinical Cmax for an agent had not been determined, the highest concentration tested was 10 microM.
The patient-derived cancer (PDC) cell lines include five colon adenocarcinomas: 186277-243-T-J2-PDC, 616215-338-R-J1-PDC, 439559-082-T-J2-PDC, 463943-066-T-J2-PDC, and 519858-162-T-J1-PDC; three pancreatic carcinomas: 323965-272-R-J2-PDC, 521955-158-R6-J3-PDC, and 521955-158-R2-J5-PDC; two uterine sarcomas: 327498-152-R-J2-PDC and 993429-296-R-J1-PDC; two rhabdomyosarcomas: 755483-174-R-J1-PDC and 772245-204-R-J1-PDC; two soft tissue sarcomas: 126254-015-R-J1-PDC and 494315-158-R-J1-PDC; two malignant fibrous histiocytomas: 317291-083-R-J1-PDC and 596521-263-R-J1-PDC; two breast carcinomas: 171881-019-R-J1-PDC and 885512-296-R-J2-PDC; and one ovarian carcinoma: 6556581-035-R-J-PDC were obtained from the NCI PDMR, (https://pdmr.cancer.gov). The established cell lines HSSY-2 synovial sarcoma (RRID:CVCL 8719), SYO-1 synovial sarcoma (RRID:CVCL_7146), MPNST malignant peripheral neural sheath tumor were obtained from the Sloan Kettering Institute. The following established cell lines were purchased from the American Type Culture Collection (ATCC, Manassas, VA), Sor the received from the NCI repository:, PANC-1 pancreatic carcinoma (CRL-1469, RRID:CVCL_0480), OVCAR-5 ovarian carcinoma (RRID:CVCL_1628), OVCAR-8 ovarian carcinoma (RRID:CVCL_1629), , MCF-7 breast carcinoma (CRL-12584, RRID:CVCL_0031), MDA-MB-231 breast carcinoma (CRL-12532, RRID:CVCL_0062), NCI-H1876 small cell lung carcinoma (CRL-5902, RRID:CVCL_1503), NCI-H510A small cell lung carcinoma (HTB-184, RRID:CVCL_1565), NCI-H1417 (CRL-5869, RRID:CVCL_1469), and NCI-H196 small cell lung carcinoma (CRL-5823, RRID:CVCL_1509). Dr. Peter Houghton (Greehey Children's Cancer Research Institute, University of Texas Health Science Center, San Antonio, TX) provided Rh-18 rhabdomyosarcoma (RRID:CVCL_1659). Pooled donor human umbilical vein endothelial cells (HUVEC, Lonza, cat. CC-2519) and human mesenchymal stem cells (hMSC, Lonza, cat. PT-2501) were purchased from Lonza (Walkersville, MD).
Cell Culture. […]

[1] = second compound 0.03 µM, first compound 0.00316 µM
[2] = second compound 0.03 µM, first compound 0.01 µM
[3] = second compound 0.03 µM, first compound 0.0316 µM
[4] = second compound 0.03 µM, first compound 0.1 µM
[5] = second compound 0.03 µM, first compound 0.316 µM
[6] = second compound 0.03 µM, first compound 1 µM
[7] = second compound 0.0949 µM, first compound 0.00316 µM
[8] = second compound 0.0949 µM, first compound 0.01 µM
[9] = second compound 0.0949 µM, first compound 0.0316 µM
[10] = second compound 0.0949 µM, first compound 0.1 µM
[11] = second compound 0.0949 µM, first compound 0.316 µM
[12] = second compound 0.0949 µM, first compound 1 µM
[13] = second compound 0.3 µM, first compound 0.00316 µM
[14] = second compound 0.3 µM, first compound 0.01 µM
[15] = second compound 0.3 µM, first compound 0.0316 µM
[16] = second compound 0.3 µM, first compound 0.1 µM
[17] = second compound 0.3 µM, first compound 0.316 µM
[18] = second compound 0.3 µM, first compound 1 µM
[19] = second compound 0.949 µM, first compound 0.00316 µM
[20] = second compound 0.949 µM, first compound 0.01 µM
[21] = second compound 0.949 µM, first compound 0.0316 µM
[22] = second compound 0.949 µM, first compound 0.1 µM
[23] = second compound 0.949 µM, first compound 0.316 µM
[24] = second compound 0.949 µM, first compound 1 µM
[25] = second compound 3 µM, first compound 0.00316 µM
[26] = second compound 3 µM, first compound 0.01 µM
[27] = second compound 3 µM, first compound 0.0316 µM
[28] = second compound 3 µM, first compound 0.1 µM
[29] = second compound 3 µM, first compound 0.316 µM
[30] = second compound 3 µM, first compound 1 µM
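Note: spheroids exposed to compounds for seven days.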

SMILES	IC50 (second compound 0.03 µM)	IC50 (second compound 0.0949 µM)	IC50 (second compound 0.3 µM)	IC50 (second compound 0.949 µM)	IC50 (second compound 3 µM)	viability, T/C [1]	viability, T/C [2]	viability, T/C [3]	viability, T/C [4]	viability, T/C [5]	viability, T/C [6]	viability, T/C [7]	viability, T/C [8]	viability, T/C [9]	viability, T/C [10]	viability, T/C [11]	viability, T/C [12]	viability, T/C [13]	viability, T/C [14]	viability, T/C [15]	other results
CCN1CCN(Cc2ccc(Nc3ncc(F)c(-c4cc(F)c5nc(C)n(C(C)C)c5c4)n3)nc2)CC1 + CCN1C(C(=O)NC23CCC(C(=O)O)(CC2)CC3)C(c2cccc(Cl)c2F)C2(C(=O)Nc3cc(Cl)ccc32)C12CCCCC2	> 1 µM	> 1 µM	> 1 µM	> 1 µM	> 1 µM	101%	98.5%	102%	110%	103%	125%	99.8%	107%	97.3%	95.5%	110%	98.3%	102%	105%	89.5%	viability, T/C [16]: 109%; viability, T/C [17]: 120%; viability, T/C [18]: 104%; viability, T/C [19]: 103%; viability, T/C [20]: 99.5%; viability, T/C [21]: 106%; viability, T/C [22]: 99.9%; viability, T/C [23]: 107%; viability, T/C [24]: 131%; viability, T/C [25]: 97.2%; viability, T/C [26]: 92.9%; viability, T/C [27]: 99.7%; viability, T/C [28]: 77.8%; viability, T/C [29]: 84.5%; viability, T/C [30]: 115%
O=C(c1ccc(F)c(F)c1Nc1ccc(I)cc1F)N1CC(O)([C@@H]2CCCCN2)C1 + CCN1C(C(=O)NC23CCC(C(=O)O)(CC2)CC3)C(c2cccc(Cl)c2F)C2(C(=O)Nc3cc(Cl)ccc32)C12CCCCC2	0.0426 µM	0.0646 µM	0.0424 µM	0.0501 µM	0.0193 µM	98%	72.2%	58%	38.7%	8.47%	1.77%	80.2%	87.7%	66%	39.8%	8.87%	1.19%	85.8%	74.7%	61.1%	viability, T/C [16]: 22.3%; viability, T/C [17]: 8.15%; viability, T/C [18]: 2.9%; viability, T/C [19]: 86.8%; viability, T/C [20]: 67.3%; viability, T/C [21]: 66.3%; viability, T/C [22]: 30.9%; viability, T/C [23]: 8.19%; viability, T/C [24]: 2.6%; viability, T/C [25]: 74.9%; viability, T/C [26]: 64.4%; viability, T/C [27]: 38.3%; viability, T/C [28]: 20.6%; viability, T/C [29]: 5.52%; viability, T/C [30]: 0.67%
